Experimental data published in publication PMC11410943 (Nature Communications, 2024).
Converted amounts (≈) assume the structure as drawn. Where two headings read alike, the source gives them in different places.

Assays:
[1] = biological target: acetylcholine esterase (AChE) (Homo sapiens, UniProt P22303); test: AChE inhibition, reversibility on dilution; assay type: biochemical; conditions: 30 μM, 100-fold dilution to 0.3 μM, excess AChE
[2] = First-in-human SAD study, safety and tolerability; assay type: in vivo, healthy human volunteers; conditions: single IV infusion 120-1050 mg
Enterobacter cloacae = test: MIC; conditions: Enterobacter cloacae
[3] = Hepatocyte stability / intrinsic clearance; assay type: in vitro ADME, rat
Morganella morganii = test: MIC; conditions: IHMA/CARB-X MDR clinical isolates 2019, N=42
[4] = Rat 14-day GLP toxicology / toxicokinetics; assay type: in vivo
A. baumannii [5] = assay type: cell-based
[6] = Hepatocyte stability / intrinsic clearance; assay type: in vitro ADME, human
Serratia marcescens = test: MIC; conditions: IHMA/CARB-X MDR clinical isolates 2019, N=45
[7] = biological target: bile salt export pump (BSEP) (Homo sapiens, UniProt O95342); test: BSEP inhibition and substrate determination; assay type: in vitro ADME; conditions: up to 50 µM
Chain of bile salt export pump (BSEP) (O95342 whole entry, species assumed): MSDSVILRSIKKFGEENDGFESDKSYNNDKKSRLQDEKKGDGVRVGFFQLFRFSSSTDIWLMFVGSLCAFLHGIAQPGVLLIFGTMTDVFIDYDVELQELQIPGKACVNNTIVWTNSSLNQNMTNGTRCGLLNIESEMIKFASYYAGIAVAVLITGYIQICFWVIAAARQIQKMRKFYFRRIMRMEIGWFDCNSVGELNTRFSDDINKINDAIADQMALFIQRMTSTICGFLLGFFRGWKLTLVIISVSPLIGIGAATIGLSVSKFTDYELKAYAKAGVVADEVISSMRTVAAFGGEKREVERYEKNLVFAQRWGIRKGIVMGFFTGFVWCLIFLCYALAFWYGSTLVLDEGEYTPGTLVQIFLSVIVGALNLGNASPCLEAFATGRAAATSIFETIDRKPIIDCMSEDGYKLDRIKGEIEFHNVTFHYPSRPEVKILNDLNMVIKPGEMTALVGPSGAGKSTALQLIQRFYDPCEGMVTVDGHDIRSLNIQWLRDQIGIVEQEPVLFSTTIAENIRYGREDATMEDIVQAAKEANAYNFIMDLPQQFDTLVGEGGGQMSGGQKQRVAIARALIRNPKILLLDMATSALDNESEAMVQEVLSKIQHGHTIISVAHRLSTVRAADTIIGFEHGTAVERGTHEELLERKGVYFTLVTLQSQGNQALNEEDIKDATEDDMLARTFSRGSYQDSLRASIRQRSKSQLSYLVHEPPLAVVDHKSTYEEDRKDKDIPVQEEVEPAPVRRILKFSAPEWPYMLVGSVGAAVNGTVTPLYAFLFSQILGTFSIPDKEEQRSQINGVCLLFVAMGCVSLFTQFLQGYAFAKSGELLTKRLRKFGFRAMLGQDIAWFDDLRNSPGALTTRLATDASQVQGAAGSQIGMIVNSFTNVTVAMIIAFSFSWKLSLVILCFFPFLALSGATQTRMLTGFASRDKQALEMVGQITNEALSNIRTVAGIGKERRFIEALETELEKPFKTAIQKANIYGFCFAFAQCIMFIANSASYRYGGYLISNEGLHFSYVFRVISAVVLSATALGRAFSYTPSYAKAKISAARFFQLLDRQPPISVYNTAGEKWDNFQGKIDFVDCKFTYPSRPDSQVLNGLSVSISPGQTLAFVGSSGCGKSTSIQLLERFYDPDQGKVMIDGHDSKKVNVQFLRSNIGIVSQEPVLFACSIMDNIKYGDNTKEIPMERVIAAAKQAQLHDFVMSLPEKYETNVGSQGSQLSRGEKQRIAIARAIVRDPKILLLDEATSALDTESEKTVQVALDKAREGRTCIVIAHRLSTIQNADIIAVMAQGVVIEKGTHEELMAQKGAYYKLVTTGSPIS

[8] = test system: Stenotrophomonas maltophilia; test: MIC; conditions: IHMA/CARB-X MDR clinical isolates 2019, N=150
[9] = IVIVE of clearance in humans; design: species or system human
Proteus spp. = test: MIC; conditions: IHMA/CARB-X MDR clinical isolates 2019, N=152
A. baumannii [10] = test: Neutropenic mouse; assay type: in vivo; conditions: SC every 8 h, wild-type and MDR isolates
[11] = Dog pharmacokinetic study; assay type: in vivo, Beagle dog; conditions: dogs
A. baumannii [12] = test system: A. baumannii
E. coli [13] = test: Neutropenic mouse; assay type: in vivo; conditions: SC every 8 h, wild-type and MDR isolates
P-glycoprotein (P-gp) = P-glycoprotein (P-gp) (Homo sapiens, UniProt P08183); test: P-gp substrate determination; assay type: in vitro ADME
Chain of P-glycoprotein (P-gp) (P08183 whole entry): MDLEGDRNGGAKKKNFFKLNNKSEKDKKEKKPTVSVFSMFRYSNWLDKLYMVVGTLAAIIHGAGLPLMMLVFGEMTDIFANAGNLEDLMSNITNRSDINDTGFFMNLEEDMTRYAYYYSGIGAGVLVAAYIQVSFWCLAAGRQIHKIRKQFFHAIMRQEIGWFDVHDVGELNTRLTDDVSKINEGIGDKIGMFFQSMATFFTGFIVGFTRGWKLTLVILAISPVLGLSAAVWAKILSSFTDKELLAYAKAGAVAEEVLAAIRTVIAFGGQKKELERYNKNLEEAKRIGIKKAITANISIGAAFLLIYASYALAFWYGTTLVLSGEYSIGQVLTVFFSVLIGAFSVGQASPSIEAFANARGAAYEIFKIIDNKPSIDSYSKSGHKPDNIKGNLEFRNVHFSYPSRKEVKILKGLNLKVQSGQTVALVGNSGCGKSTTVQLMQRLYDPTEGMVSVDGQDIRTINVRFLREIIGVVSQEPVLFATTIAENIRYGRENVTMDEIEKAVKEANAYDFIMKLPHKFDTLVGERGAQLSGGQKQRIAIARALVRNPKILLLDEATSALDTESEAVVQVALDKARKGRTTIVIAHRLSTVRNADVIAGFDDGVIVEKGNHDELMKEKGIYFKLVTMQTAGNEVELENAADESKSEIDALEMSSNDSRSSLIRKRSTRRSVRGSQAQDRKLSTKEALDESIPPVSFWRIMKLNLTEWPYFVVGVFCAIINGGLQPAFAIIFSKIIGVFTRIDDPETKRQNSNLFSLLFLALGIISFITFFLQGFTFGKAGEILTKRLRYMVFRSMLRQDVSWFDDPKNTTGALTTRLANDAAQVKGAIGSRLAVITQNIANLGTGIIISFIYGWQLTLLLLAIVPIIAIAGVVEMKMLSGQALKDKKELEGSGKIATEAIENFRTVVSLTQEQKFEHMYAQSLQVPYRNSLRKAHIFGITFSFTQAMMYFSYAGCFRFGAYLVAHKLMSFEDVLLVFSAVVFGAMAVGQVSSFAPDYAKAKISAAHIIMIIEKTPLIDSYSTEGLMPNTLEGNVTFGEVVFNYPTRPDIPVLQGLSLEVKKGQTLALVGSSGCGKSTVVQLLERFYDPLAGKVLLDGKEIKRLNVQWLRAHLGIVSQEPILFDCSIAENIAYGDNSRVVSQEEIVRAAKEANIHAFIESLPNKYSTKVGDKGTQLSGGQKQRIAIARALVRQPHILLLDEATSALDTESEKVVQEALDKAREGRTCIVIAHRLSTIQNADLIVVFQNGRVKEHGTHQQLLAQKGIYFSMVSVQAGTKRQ

E. coli [14] = test: Killing kinetics assay; assay type: cell-based; conditions: 0.5X to 16X MIC, susceptible and MDR strains
CYP3A4 = CYP3A4 (Homo sapiens, UniProt P08684); test: CYP reaction phenotyping; assay type: in vitro ADME
Chain of CYP3A4 (P08684 whole entry): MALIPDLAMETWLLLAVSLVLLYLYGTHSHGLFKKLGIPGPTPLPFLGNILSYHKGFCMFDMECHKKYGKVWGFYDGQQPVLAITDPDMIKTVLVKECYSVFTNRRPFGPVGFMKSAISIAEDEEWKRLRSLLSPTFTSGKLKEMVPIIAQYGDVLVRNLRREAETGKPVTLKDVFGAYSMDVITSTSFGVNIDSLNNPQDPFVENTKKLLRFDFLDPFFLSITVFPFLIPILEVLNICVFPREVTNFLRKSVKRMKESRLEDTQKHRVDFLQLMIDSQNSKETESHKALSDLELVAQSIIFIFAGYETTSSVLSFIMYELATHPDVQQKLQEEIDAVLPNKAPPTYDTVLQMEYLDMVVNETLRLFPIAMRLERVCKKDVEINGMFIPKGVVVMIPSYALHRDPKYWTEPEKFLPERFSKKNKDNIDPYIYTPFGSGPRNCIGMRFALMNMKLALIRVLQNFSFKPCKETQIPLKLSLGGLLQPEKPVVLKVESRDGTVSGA

[15] = test system: diverse Gram-negative pathogens
E. coli [16] = test: Neutropenic rat lung infection model; assay type: in vivo; conditions: IV infusion, MDR isolates
P. aeruginosa [17] = test: Neutropenic mouse; assay type: in vivo
[18] = Partitioning into red blood cells; assay type: in vitro ADME
Enterococcus faecalis = test: MIC; conditions: read-out: median MIC
P. aeruginosa [19] = test: Killing kinetics assay; assay type: cell-based; conditions: 0.5X to 16X MIC, susceptible and MDR strains
K. pneumoniae = test: Neutropenic rat lung infection model; conditions: IV infusion, MDR isolates
Citrobacter spp. = test: MIC; conditions: IHMA/CARB-X MDR clinical isolates 2019, N=151
Escherichia coli = test: MIC
Acinetobacter baumannii = test: MIC; conditions: Acinetobacter baumannii
E. cloacae = assay type: cell-based
[20] = Plasma protein binding, equilibrium dialysis; assay type: in vitro ADME, rats; conditions: % bound
P. aeruginosa [21] = test system: P. aeruginosa
E. faecalis / E. faecium = test: MIC
Pseudomonas aeruginosa = test: MIC; conditions: for MIC: Pseudomonas aeruginosa
[22] = Dog 14-day GLP toxicology; assay type: in vivo
[23] = Bile duct cannulation / excretion study in rats; assay type: in vivo, Sprague-Dawley rats
[24] = test system: AChE, MAO-B, Adrenergic α1 A, 5-HT1A; test: Cerep-88 secondary pharmacology screen
[25] = Hepatocyte stability / intrinsic clearance; assay type: in vitro ADME, monkey
P. mirabilis = test: MIC; conditions: Proteus mirabilis, read-out: median MIC
[26] = test system: other cardiac ion channels; test: Other cardiac ion channels; assay type: cell-based
[27] = read-out: median MIC, panel of ATCC strains
[28] = IHMA/CARB-X MDR clinical isolates 2019, N=300

Chain of acetylcholine esterase (AChE) (P22303 32-614): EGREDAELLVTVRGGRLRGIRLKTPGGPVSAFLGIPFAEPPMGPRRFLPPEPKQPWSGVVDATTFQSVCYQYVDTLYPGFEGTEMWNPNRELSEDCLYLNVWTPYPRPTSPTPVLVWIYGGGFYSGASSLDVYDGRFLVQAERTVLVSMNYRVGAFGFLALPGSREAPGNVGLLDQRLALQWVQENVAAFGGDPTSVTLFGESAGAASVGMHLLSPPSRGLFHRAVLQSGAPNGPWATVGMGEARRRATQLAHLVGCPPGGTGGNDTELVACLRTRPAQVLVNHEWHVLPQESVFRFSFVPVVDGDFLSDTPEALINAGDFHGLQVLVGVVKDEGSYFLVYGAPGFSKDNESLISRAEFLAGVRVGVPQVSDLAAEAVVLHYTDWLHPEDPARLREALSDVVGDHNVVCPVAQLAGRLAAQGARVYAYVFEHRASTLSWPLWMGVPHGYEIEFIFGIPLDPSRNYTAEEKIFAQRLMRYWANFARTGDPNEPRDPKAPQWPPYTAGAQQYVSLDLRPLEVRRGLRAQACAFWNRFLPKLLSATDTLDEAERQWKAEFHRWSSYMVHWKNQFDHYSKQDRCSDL

## Cn1c(=O)ccc2ccc(F)c(CCNC[C@H]3CN(c4cnc5c(n4)NC(=O)CO5)C(=O)O3)c21 [BWC0977, 6-[(5S)−5-[[[2-(7-Fluoro-1,2-dihydro-1-methyl-2-oxo-8-quinolinyl)ethyl]amino]methyl]−2-oxo-3-oxazolidinyl]−2H-pyrazino[2,3-b]−1,4-oxazin-3(4H)-one]
[1]
  reversibility of AChE inhibition: rapidly reversed
[2]
  tolerability: generally well tolerated
Enterobacter cloacae; IHMA/CARB-X MDR clinical isolates 2019, N=152
  MIC90: 2 µg/mL (≈ 4.27 µM)
Enterobacter cloacae; [27]
  MIC: 0.06 µg/mL (≈ 0.128 µM)
[3]
  clearance predicted from CLint, % of liver blood flow (LBF): < 30%
Morganella morganii
  MIC90: 1 µg/mL (≈ 2.13 µM)
Morganella morganii; Morganella morganii
  MIC90: 1 µg/mL (≈ 2.13 µM)
[4]; 75 mg/kg/day
  AUC0–24 at NOAEL: 52000 ng·h/mL
[4]; in vivo
  NOAEL at 14 day: 75 mg/kg/day
[4]; in vivo, 75 mg/kg/day
  Cmax: 26000 ng/mL
[4]; in vivo, 250 mg/kg/day, AUC0–24 at highest dose level
  AUC(0-t): 355000 ng·h/mL
[4]; up to 250 mg/kg/day
  microscopic findings: no microscopic findings
A. baumannii [5]
  in vitro killing kinetics: significant bactericidal activity
[6]
  clearance predicted from CLint, % of liver blood flow (LBF): < 30%
Serratia marcescens
  MIC90: 1 µg/mL (≈ 2.13 µM)
[7]
  BSEP substrate / inhibitor status: neither a substrate nor an inhibitor
[8]
  MIC90: 0.25 µg/mL (≈ 0.534 µM)
[9]
  predicted human plasma CLp: 5.5 mL/min/kg
[9]; human LBF […]
  predicted % human LBF: 28%
Proteus spp.
  MIC90: 0.5 µg/mL (≈ 1.07 µM)
A. baumannii [10]
  dose-ranging efficacy (bacterial burden): excellent dose-response
[11]
  unchanged drug excreted in urine: 10%
A. baumannii [12]
  in vitro resistance frequency: 2.5 × 10^−9
  resistance frequency: 2.5 × 10^−8
E. coli [13]
  dose-ranging efficacy (bacterial burden): excellent dose-response
P-glycoprotein (P-gp)
  P-gp substrate status: substrate
E. coli [14]
  in vitro killing kinetics: significant bactericidal activity
CYP3A4
  metabolism by CYP3A4 in reaction phenotyping assay: 80%
[15]
  spontaneous resistance frequency: < 10^−9
E. coli [16]
  dose-response efficacy: excellent bactericidal dose-response
P. aeruginosa [17]; SC every 8 h, wild-type and MDR isolates
  dose-ranging efficacy (bacterial burden): excellent dose-response
P. aeruginosa [17]; dose fractionation 160 mg/kg/day SC, P. aeruginosa NCTC 13921
  PK-PD driver of efficacy: free area-under-the-curve over MIC (fAUC/MIC) as the efficacy driver
[18]
  partitioning into red blood cells: neither partitions into red blood cells
Enterococcus faecalis
  MIC: 0.06 µg/mL (≈ 0.128 µM)
P. aeruginosa [19]
  in vitro killing kinetics: significant bactericidal activity
K. pneumoniae
  dose-response efficacy: excellent bactericidal dose-response
Citrobacter spp.
  MIC90: 1 µg/mL (≈ 2.13 µM)
Escherichia coli; Escherichia coli, read-out: median MIC, panel of ATCC strains
  MIC: 0.03 µg/mL (≈ 0.064 µM)
Escherichia coli; [28]
  MIC90: 0.5 µg/mL (≈ 1.07 µM)
Acinetobacter baumannii; IHMA/CARB-X MDR clinical isolates 2019, N=298
  MIC90: 1 µg/mL (≈ 2.13 µM)
Acinetobacter baumannii; [27]
  MIC: 0.06 µg/mL (≈ 0.128 µM)
E. cloacae
  in vitro killing kinetics: significant bactericidal activity
[20]
  plasma protein binding: 94%
P. aeruginosa [21]
  in vitro resistance frequency: < 1 × 10^−9
  resistance frequency: < 1 × 10^−9
E. faecalis / E. faecium
  MIC90: 0.06 µg/mL (≈ 0.128 µM)
Pseudomonas aeruginosa; [28]
  MIC90: 1 µg/mL (≈ 2.13 µM)
Pseudomonas aeruginosa; NCTC13921, P. aeruginosa NCTC 13921
  MIC: 0.25 µg/mL (≈ 0.534 µM)
Pseudomonas aeruginosa; [27]
  MIC: 0.25 µg/mL (≈ 0.534 µM)
[22]; dose levels above 40 mg/kg/day
  microscopic findings: Microscopic changes consistent with hepatobiliary toxicity
[22]; in vivo
  NOAEL at 14 day: 40 mg/kg/day
[22]; in vivo, 40 mg/kg/day
  AUC(0-t): 90000 ng·h/mL
  Cmax: 25000 ng/mL
[23]
  total dose observed unchanged in the bile: about 1.5%
[24]
  result in Cerep-88 screen: hits
[25]
  clearance predicted from CLint, % of liver blood flow (LBF): < 30%
P. mirabilis
  MIC: 0.12 µg/mL (≈ 0.256 µM)
[26]
  concentration up to which other cardiac ion channels are not inhibited: > 300 µM
